Read-outs that look alike come from different tables or passages of the source. Numbered stars: 1 amine (or outer) side, 2 acyl side, 3 side chain; on linkers, the order of the positions; unused ones are H or OH. Square brackets hold non-standard residues; d marks the D form. Peptide text beside a SMILES is read from it. * marks the point of attachment. 5FAM = O=C1OC2(c3ccc(O)cc3Oc3cc(O)ccc32)c2ccc(C(=O)*)cc21; NHCH2C6H4(4-CH2CONH2) = NC(=O)Cc1ccc(CN*)cc1; X1 = O=C(Cc1ccc(CN[*:1])cc1)[*:2]
Biological target: T1, IL-6 (Homo sapiens, UniProt P05231)
T1 construct: purchased Creative Biomart IL6-12H
Assay: MST binding affinity of resynthesized NNP hits to IL-6
Method: Hit binding affinity to various targets were determined using Microscale Thermophoresis (MST). MST experiments were performed on a Monolith NT.115pico (NanoTemper Technologies GmbH, Munich, Germany). Measurements were performed at room temperature, in triplicate with incubation periods of 15, 30 and 45 minutes. […] Targets were labeled using Nanotemper Monolith 2nd Generation Protein Labeling Kits. RED-MALEIMIDE (Maleimide-647-dye) labeling kit was used for K-Ras and RED-NHS (NHS-647-dye) labeling kit was used for IL-6, IL-6R, TNFα and ASGPR. The buffer for the ASGPR contained 20 mM HEPES pH 7.4, 150 mM NaCl, 10 mM MgCl2, 2 mM CaCl2, 0.05% Pluronic F-127, and 1 mM DTT; for IL-6 contained 20 mM HEPES pH 7.4, 150 mM KCl, 10 mM MgCl2, and 0.1% Pluronic F-127; for the soluble IL-6 receptor 20 mM HEPES pH 7.4, 150 mM NaCl, 10 mM MgCl2, and 0.05% Tween-20; for K-Ras 20 mM HEPES pH 7.4, 150 mM NaCl, 10 mM MgCl2, 0.05% Tween-20 and 1 mM DTT; for TNFα 10 mM HEPES pH 7.4, 150 mM NaCl, 10 mM MgCl2, 0.05% Polysorbate-20. Triplicate data was analyzed using MO.AffinityAnalysis software (NanoTemper Technologies GmbH).

[1] = NNP2 library hit, target IL-6, one-site binding model
[2] = read-out: KD (nM) [95% conf. int], NNP2 library hit, target IL-6, one-site binding model

Structure (SMILES) | Kd [1] [nM] | Kd [2] [nM]
CC(C)C[C@H](NC(=O)[C@@H](CC(N)=O)NC(=O)[C@@H](CCCCN)NC(=O)Cc1ccc(CNC(=O)[C@H](C)NC(=O)[C@H](NC(=O)[C@@H](Cc2ccccc2)NC(=O)Cc2ccc(CNC(=O)[C@H](Cc3ccccc3)NC(=O)[C@@H](CCCCN)NC(=O)[C@@H](C)NC(=O)Cc3ccc(CNC(=O)[C@H](C)NC(=O)[C@@H](CCCNC(=N)N)NC(=O)[C@@H](Cc4ccccc4)NC(=O)Cc4ccc(CNC(=O)[C@H](C)NC(=O)[C@@H](CCCCN)NC(=O)[C@H]5CCCN5C(=O)Cc5ccc(CNC(=O)[C@H](Cc6ccccc6)NC(=O)[C@@H](C)NC(=O)[C@@H](C)NC(=O)Cc6ccc(CNC(=O)[C@H](Cc7ccccc7)NC(=O)[C@@H](CC(C)C)NC(=O)[C@@H](Cc7c[nH]cn7)NC(=O)c7ccc8c(c7)C(=O)OC87c8ccc(O)cc8Oc8cc(O)ccc87)cc6)cc5)cc4)cc3)cc2)[C@H](C)O)cc1)C(=O)NCc1ccc(CC(=O)N[C@@H](C(=O)N[C@H](Cc2c[nH]cn2)C(=O)N[C@@H](CC(C)C)C(=O)NCc2ccc(CC(=O)N[C@H](Cc3ccccc3)C(=O)N[C@H](CCCCN)C(=O)NCC(=O)NCc3ccc(CC(N)=O)cc3)cc2)[C@H](C)O)cc1 [IL6-65-2, Fluorescein-(D)His-(D)Leu-(L)Phe-PAM-(D)Ala-(D)Ala-(L)Phe-PAM-(D)Pro-(D)Lys-(L)Ala-PAM-(D)Phe-(D)Arg-(L)Ala-PAM-(D)Ala-(D)Lys-(L)Phe-PAM-(D)Phe-(D)Thr-(L)Ala-PAM-(D)Lys-(D)Asn- (L)Leu-PAM-(D)Thr-(D)His-(L)Leu-PAM-(D)Phe-(D)Lys-Gly-PAM] (5FAM-[dH][dL]F[X1][dA][dA]F[X1][dP][dK]A[X1][dF][dR]A[X1][dA][dK]F[X1][dF][dT]A[X1][dK][dN]L[X1][dT][dH]L[X1][dF][dK]G-{NHCH2C6H4(4-CH2CONH2)}) | 400 | 
CC(C)C[C@H](NC(=O)[C@@H](CCCNC(=N)N)NC(=O)[C@@H](Cc1c[nH]c2ccccc12)NC(=O)Cc1ccc(CNC(=O)[C@H](Cc2ccccc2)NC(=O)[C@@H](CO)NC(=O)[C@@H](CCCNC(=N)N)NC(=O)Cc2ccc(CNC(=O)[C@H](Cc3ccccc3)NC(=O)[C@@H](CO)NC(=O)[C@@H](CCC(=O)O)NC(=O)Cc3ccc(CNC(=O)[C@H](Cc4ccccc4)NC(=O)[C@@H](Cc4c[nH]c5ccccc45)NC(=O)[C@@H](CCCNC(=N)N)NC(=O)c4ccc5c(c4)C(=O)OC54c5ccc(O)cc5Oc5cc(O)ccc54)cc3)cc2)cc1)C(=O)NCc1ccc(CC(=O)NCC(=O)N[C@H](C)C(=O)N[C@H](C(=O)NCc2ccc(CC(=O)N[C@H](CC(N)=O)C(=O)N[C@H](CCCNC(=N)N)C(=O)N[C@@H](Cc3ccccc3)C(=O)NCc3ccc(CC(=O)N[C@H](C)C(=O)N[C@H](CO)C(=O)N[C@@H](Cc4ccccc4)C(=O)NCc4ccc(CC(=O)N5CCC[C@@H]5C(=O)N[C@H](CCCNC(=N)N)C(=O)N[C@@H](C)C(=O)NCc5ccc(CC(=O)N[C@H](Cc6ccccc6)C(=O)N[C@H](CCCCN)C(=O)NCC(=O)NCc6ccc(CC(N)=O)cc6)cc5)cc4)cc3)cc2)C(C)C)cc1 [IL6-65-3, Fluorescein-(D)Arg-(D)Trp-(L)Phe-PAM-(D)Glu-(D)Ser-(L)Phe-PAM-(D)Arg-(D)Ser-(L)Phe-PAM-(D)Trp-(D)Arg-(L)Leu-PAM-Gly-(D)Ala-(L)Val-PAM-(D)Asn-(D)Arg-(L)Phe-PAM-(D)Ala-(D)Ser-(L)Phe- PAM-(D)Pro-(D)Arg-(L)Ala-PAM-(D)Phe-(D)Lys-Gly-PAM] (5FAM-[dR][dW]F[X1][dE][dS]F[X1][dR][dS]F[X1][dW][dR]L[X1]G[dA]V[X1][dN][dR]F[X1][dA][dS]F[X1][dP][dR]A[X1][dF][dK]G-{NHCH2C6H4(4-CH2CONH2)}) | 90 | 
CC(C)C[C@H](NC(=O)[C@@H](CCCCN)NC(=O)[C@@H](Cc1c[nH]cn1)NC(=O)Cc1ccc(CNC(=O)[C@H](CC(C)C)NC(=O)[C@@H](CCCNC(=N)N)NC(=O)[C@@H](Cc2c[nH]c3ccccc23)NC(=O)Cc2ccc(CNC(=O)[C@H](Cc3ccccc3)NC(=O)[C@@H](Cc3ccc(O)cc3)NC(=O)[C@@H](Cc3c[nH]cn3)NC(=O)Cc3ccc(CNC(=O)[C@H](CC(C)C)NC(=O)[C@@H](CCCNC(=N)N)NC(=O)[C@@H](CC(C)C)NC(=O)Cc4ccc(CNC(=O)[C@H](Cc5ccccc5)NC(=O)[C@@H](Cc5c[nH]c6ccccc56)NC(=O)[C@@H](CCCNC(=N)N)NC(=O)c5ccc6c(c5)C(=O)OC65c6ccc(O)cc6Oc6cc(O)ccc65)cc4)cc3)cc2)cc1)C(=O)NCc1ccc(CC(=O)N[C@H](C)C(=O)N[C@H](Cc2ccc(O)cc2)C(=O)NCC(=O)NCc2ccc(CC(=O)N[C@H](Cc3c[nH]cn3)C(=O)N[C@H](CCC(=O)O)C(=O)N[C@@H](CC(C)C)C(=O)NCc3ccc(CC(=O)N4CCC[C@@H]4C(=O)N[C@H](CCCNC(=N)N)C(=O)N[C@@H](C)C(=O)NCc4ccc(CC(=O)N[C@H](Cc5ccccc5)C(=O)N[C@H](CCCCN)C(=O)NCC(=O)NCc5ccc(CC(N)=O)cc5)cc4)cc3)cc2)cc1 [IL6-65-4, Fluorescein-(D)Arg-(D)Trp-(L)Phe-PAM-(D)Leu-(D)Arg-(L)Leu-PAM-(D)His-(D)Tyr-(L)Phe-PAM-(D)Trp-(D)Arg-(L)Leu-PAM-(D)His-(D)Lys-(L)Leu-PAM-(D)Ala-(D)Tyr-Gly-PAM-(D)His-(D)Glu-(L)Leu- PAM-(D)Pro-(D)Arg-(L)Ala-PAM-(D)Phe-(D)Lys-Gly-PAM] (5FAM-[dR][dW]F[X1][dL][dR]L[X1][dH][dY]F[X1][dW][dR]L[X1][dH][dK]L[X1][dA][dY]G[X1][dH][dE]L[X1][dP][dR]A[X1][dF][dK]G-{NHCH2C6H4(4-CH2CONH2)}) | 37 | 
CC(C)C[C@H](NC(=O)[C@@H](CCCNC(=N)N)NC(=O)CNC(=O)Cc1ccc(CNC(=O)[C@H](Cc2ccccc2)NC(=O)[C@@H](Cc2ccccc2)NC(=O)[C@@H](CO)NC(=O)c2ccc3c(c2)C(=O)OC32c3ccc(O)cc3Oc3cc(O)ccc32)cc1)C(=O)NCc1ccc(CC(=O)N[C@H](CC(C)C)C(=O)N[C@H](CCCCN)C(=O)N[C@@H](CC(C)C)C(=O)NCc2ccc(CC(=O)N[C@H](Cc3c[nH]c4ccccc34)C(=O)N[C@H](CCCNC(=N)N)C(=O)N[C@@H](CC(C)C)C(=O)NCc3ccc(CC(=O)N[C@H](C)C(=O)N[C@H](CCCCN)C(=O)N[C@@H](Cc4ccccc4)C(=O)NCc4ccc(CC(=O)N[C@H](Cc5c[nH]cn5)C(=O)N[C@H](CCCCN)C(=O)N[C@@H](Cc5ccccc5)C(=O)NCc5ccc(CC(=O)N[C@H](C)C(=O)N[C@H](CCCNC(=N)N)C(=O)N[C@@H](CC(C)C)C(=O)NCc6ccc(CC(=O)N[C@@H](C(=O)N[C@H](Cc7c[nH]cn7)C(=O)N[C@@H](CC(C)C)C(=O)NCc7ccc(CC(=O)N[C@H](Cc8ccccc8)C(=O)N[C@H](CCCNC(=N)N)C(=O)NCC(=O)NCc8ccc(CC(N)=O)cc8)cc7)[C@H](C)O)cc6)cc5)cc4)cc3)cc2)cc1 [IL6-65-5] (5FAM-[dS][dF]F[X1]G[dR]L[X1][dL][dK]L[X1][dW][dR]L[X1][dA][dK]F[X1][dH][dK]F[X1][dA][dR]L[X1][dT][dH]L[X1][dF][dR]G-{NHCH2C6H4(4-CH2CONH2)}) |  | 33
CC(C)C[C@H](NC(=O)[C@@H](CCCNC(=N)N)NC(=O)CNC(=O)Cc1ccc(CNC(=O)[C@H](CC(C)C)NC(=O)[C@@H](CC(C)C)NC(=O)[C@@H](Cc2ccc(O)cc2)NC(=O)c2ccc3c(c2)C(=O)OC32c3ccc(O)cc3Oc3cc(O)ccc32)cc1)C(=O)NCc1ccc(CC(=O)N[C@H](CCCNC(=N)N)C(=O)N[C@H](CO)C(=O)N[C@@H](Cc2ccccc2)C(=O)NCc2ccc(CC(=O)N[C@H](Cc3ccccc3)C(=O)N[C@H](CCCNC(=N)N)C(=O)N[C@@H](C)C(=O)NCc3ccc(CC(=O)N[C@H](CCC(=O)O)C(=O)N[C@H](CCCCN)C(=O)N[C@@H](Cc4ccccc4)C(=O)NCc4ccc(CC(=O)N[C@H](CCC(=O)O)C(=O)N[C@H](CCCNC(=N)N)C(=O)N[C@@H](CC(C)C)C(=O)NCc5ccc(CC(=O)N[C@H](C)C(=O)N[C@H](CCCNC(=N)N)C(=O)N[C@@H](CC(C)C)C(=O)NCc6ccc(CC(=O)N7CCC[C@@H]7C(=O)N[C@H](CCCNC(=N)N)C(=O)N[C@@H](C)C(=O)NCc7ccc(CC(=O)N[C@H](Cc8ccc(O)cc8)C(=O)N[C@H](CCCNC(=N)N)C(=O)N[C@@H](Cc8ccccc8)C(=O)NCc8ccc(CC(N)=O)cc8)cc7)cc6)cc5)cc4)cc3)cc2)cc1 [IL6-65-7, Fluorescein-(D)Tyr-(D)Leu-(L)Leu-PAM-Gly-(D)Arg-(L)Leu-PAM-(D)Arg-(D)Ser-(L)Phe-PAM-(D)Phe-(D)Arg-(L)Ala-PAM-(D)Glu-(D)Lys-(L)Phe-PAM-(D)Glu-(D)Arg-(L)Leu-PAM-(D)Ala-(D)Arg-(L)Leu- PAM-(D)Pro-(D)Arg-(L)Ala-PAM-(D)Tyr-(D)Arg-(L)Phe-PAM] (5FAM-[dY][dL]L[X1]G[dR]L[X1][dR][dS]F[X1][dF][dR]A[X1][dE][dK]F[X1][dE][dR]L[X1][dA][dR]L[X1][dP][dR]A[X1][dY][dR]F-{NHCH2C6H4(4-CH2CONH2)}) |  | 210

From patent publication US20230393140A1, “BINDING ASSAYS INVOLVING A PLURALITY OF SYNTHETIC COMPOUNDS, TARGETS, AND COUNTER TARGETS” (SRI International, priority 2020, published 2023)
